Results from patent EP4140481A1, “PROTEIN-OLIGOMER BINDING AGENTS AND THERAPEUTIC USES THEREOF” (Galyan Bio, Inc., priority 2021, dated 2023).

Assays:
C. elegans [1] = assay: C. elegans differential gene expression (RNA-Seq); type: in vivo; details: vs. vehicle control
Procedure: […]. Both young (adult day 3) and aged (adult day 10) worms were collected from the same population of worms tested in lifespan assay.
Technical Background and Data Visualization Guide: Differential gene expression was performed with EdgeR using […] likelihood ratio tests based on fitting linear models. The likelihood ratios were used to determine the p-values which were subsequently corrected for using the BH false discovery rate (fdr) method. Eventually, differential expressed genes (DEG) were defined as genes with fdr-corrected p-value of 0.05 or lower, as well as a change in expression of at least 2-fold in a given between-group comparison. In this study, the following comparisons groups were used: Table 36: Comparison groups for differential gene expression
[…]. All DEG shown have P values under the cutoff of 0.05; […]. Gene function annotations collected from WormBase and human orthologs are predicted by DRSC Integrative Ortholog Prediction Tool (DIOPT, www.flyrna.org). […] […]. All DEG shown have P values under the cutoff of 0.05; […]. Gene function annotations collected from WormBase and human orthologs are predicted by DRSC Integrative Ortholog Prediction Tool (DIOPT, www.flyrna.org).

C. elegans [2] = assay: C. elegans lifespan assay (Automated Lifespan Machine); type: in vivo
Procedure: Experimental Design: The lifespan assay was initiated by expanding all replicate groups to more than 1000 worms, then synchronizing by bleaching and allowing larval worms to hatch and arrest. To eliminate the effect of bacterial metabolism and growth on lifespan, synchronized worms were only exposed to dead food bacteria. To suppress progeny, worms are transferred to media containing 5-Fluorodeoxyuridine (FUdR) within 54-60 hours post plating. Worms are inspected at 24 and48 hours after this transfer to confirm infertility. Finally, the worms are inspected for general health and morphology before transferring to scanner plates. The scanner plates are incubated for an additional 2 days and inspected again before loading on to scanners. To understand the physiological impact of either genetic variation or pharmacological treatment on aging, it is crucial to use quantitative models. The analysis of lifespan data is grounded in the study of two mathematical functions: the survival curve and the hazard function. The survival curve (Figure 54) describes the fraction of a tested population that remains alive over time. The hazard function (Figure 55) is related to the survival curve and provides an intuitive measure of the risk of death. This function describes the probability that atypical individual who is currently alive will soon die, providing a clear visualization of the way a treatment may change patterns in mortality. To obtain high-resolution lifespan data and eliminate confounding factors such as worm handling and operator bias, lifespan data was collected using an Automated Lifespan Machine (ALM). Three biological replicates, derived from synchronizing three independently-maintained lines of N2 worms, were distributed across scanner instruments. Images of the worms were then collected for the next 35 days with no interruption or manipulations. Some plates were excluded after quality checks, but plate number and worm counts for all replicates exceeded the threshold for statistical significance (Table 32, row 1).Lifespan data are represented as the percent of worms surviving over time and the profile of this curve can be modeled by the Kaplan-Meier Estimate of Survival function (Figure 54). The survival curves can be compared by several statistics including mean, median, and maximum lifespan (Table 32), as well as the age of worms at a specific percent survival (Table 34). However, to determine whether one treatment group lived longer than another, survival curves are holistically compared using a log-rank test (Table 33). In this study, all pairwise comparisons between conditions were statistically significant. Tables 32 to 34 detail the raw measurements, calculations, and statistical analysis related to the survival curve in Figure 54. Lifespan is counted with day 0 set at day 1 of adulthood. No death times are recorded until worms are placed on the scanner on day 8 so earlier deaths are excluded from calculations of mean and median. Median lifespan is equal to the time at which 50% of the subjects have died. Mean lifespan is calculated from the area under the survival curve. Maximum lifespan is equal to 95th percentile of lifespans in each group. C.I.: Confidence Interval. See Figure 55 and Table 33 for statistical analysis Table 33: Pairwise statistical analysis of survival curves.

C. elegans [3] = assay: C. elegans growth and development (toxicity) assay; type: in vivo; details: doses 32nM to 500µM, hatching to first day of adulthood
Procedure: Delivery strategy: The indicated compound dosage is based on the total volume of the plates with the assumption that the water-soluble compound diffuses throughout the agar. The compound is dissolved in a working solution and then combined directly with the food bacteria before seeding on agar plates. The food spots are dried slowly, allowing the compound to diffuse into the food bacteria and the agar for 24 hours.
Growth and development assay results: High-resolution imaging and automated detection were used to precisely measure the growth rate of animals from hatching to the first day of adulthood (total of 4 days). The C. elegans growth and development assay is highly sensitive and widely used in toxicology studies. Performing this test over a range of doses helps to identify a set of doses that have a physiological impact and exclude dose ranges that are likely too toxic to benefit lifespan.

CCc1c(C)[nH]c2ccc(C(=O)NCCN(CC)CC)cc12 [Compound 4, N-(2-(diethylamino)ethyl)-3-ethyl-2-methyl-1H-indole-5-carboxamide]
Blood Brain Barrier Penetrability AUCbrain/AUCplasma (Compound 4): AUCbrain/AUCplasma = 2.27
penetration of the blood brain area in vivo (intravenous, 1 mg/kg body weight, brain tissue): penetrates the blood brain area
cyp-35A1 Log2(fold change) (C. elegans [1]; Day 3, 200 nM): 3.04
cyp-35B1 Log2(fold change) (C. elegans [1]; Day 3, 200 nM): 3.41
cyp-35B2 Log2(fold change) (C. elegans [1]; Day 3, 200 nM): 9.18
cyp-35B3 Log2(fold change) (C. elegans [1]; Day 3, 200 nM): 12.96
irg-4 Log2(fold change) (C. elegans [1]; Day 3, 200 nM): 1.37
irg-5 Log2(fold change) (C. elegans [1]; Day 3, 200 nM): 2.09
pgp-13 Log2(fold change) (C. elegans [1]; Day 3, 200 nM): 3.55
C18H9.6 Log2(fold change) (C. elegans [1]; Day 3, 2 µM): 1.16
C29F3.7 Log2(fold change) (C. elegans [1]; Day 3, 2 µM): 1.25
D1086.3 Log2(fold change) (C. elegans [1]; Day 3, 2 µM): 1.19
F15B9.6 Log2(fold change) (C. elegans [1]; Day 3, 2 µM): 1.57
F55G11.2 Log2(fold change) (C. elegans [1]; Day 3, 2 µM): 2.80
T19B10.2 Log2(fold change) (C. elegans [1]; Day 3, 2 µM): 1.79
cpr-4 Log2(fold change) (C. elegans [1]; Day 3, 2 µM): 1.35
cyp-33A1 Log2(fold change) (C. elegans [1]; Day 3, 2 µM): 1.27
cyp-35A1 Log2(fold change) (C. elegans [1]; Day 3, 2 µM): 8.58
cyp-35B1 Log2(fold change) (C. elegans [1]; Day 3, 2 µM): 5.05
cyp-35B2 Log2(fold change) (C. elegans [1]; Day 3, 2 µM): 11.26
cyp-35B3 Log2(fold change) (C. elegans [1]; Day 3, 2 µM): 15.81
cyp-35C1 Log2(fold change) (C. elegans [1]; Day 3, 2 µM): 2.17
far-3 Log2(fold change) (C. elegans [1]; Day 3, 2 µM): 1.66
gst-5 Log2(fold change) (C. elegans [1]; Day 3, 2 µM): 2.71
irg-4 Log2(fold change) (C. elegans [1]; Day 3, 2 µM): 3.88
irg-5 Log2(fold change) (C. elegans [1]; Day 3, 2 µM): 5.88
pgp-13 Log2(fold change) (C. elegans [1]; Day 3, 2 µM): 5.44
ugt-44 Log2(fold change) (C. elegans [1]; Day 3, 2 µM): 1.45
cyp-35A1 Log2(fold change) (C. elegans [1]; Day 10, 200 nM): 4.25
cyp-35B1 Log2(fold change) (C. elegans [1]; Day 10, 200 nM): 1.62
cyp-35B2 Log2(fold change) (C. elegans [1]; Day 10, 200 nM): 5.71
cyp-35B3 Log2(fold change) (C. elegans [1]; Day 10, 200 nM): 11.65
irg-4 Log2(fold change) (C. elegans [1]; Day 10, 200 nM): 1.22
irg-5 Log2(fold change) (C. elegans [1]; Day 10, 200 nM): 2.12
pgp-13 Log2(fold change) (C. elegans [1]; Day 10, 200 nM): 4.36
F55G11.2 Log2(fold change) (C. elegans [1]; Day 10, 2 µM): 1.70
K08D8.6 Log2(fold change) (C. elegans [1]; Day 10, 2 µM): 1.45
cpr-4 Log2(fold change) (C. elegans [1]; Day 10, 2 µM): 1.80
cyp-35A1 Log2(fold change) (C. elegans [1]; Day 10, 2 µM): 6.81
cyp-35B1 Log2(fold change) (C. elegans [1]; Day 10, 2 µM): 2.06
cyp-35B2 Log2(fold change) (C. elegans [1]; Day 10, 2 µM): 6.61
cyp-35B3 Log2(fold change) (C. elegans [1]; Day 10, 2 µM): 13.40
cyp-35C1 Log2(fold change) (C. elegans [1]; Day 10, 2 µM): 1.60
gst-5 Log2(fold change) (C. elegans [1]; Day 10, 2 µM): 2.42
irg-4 Log2(fold change) (C. elegans [1]; Day 10, 2 µM): 2.95
irg-5 Log2(fold change) (C. elegans [1]; Day 10, 2 µM): 4.26
pgp-13 Log2(fold change) (C. elegans [1]; Day 10, 2 µM): 6.36
Age at 25% mortality (C. elegans [2]; 200 nM): 21.42 days
Age at 50% mortality (C. elegans [2]; 200 nM): 26.16 days
Age at 75% mortality (C. elegans [2]; 200 nM): 29.57 days
Age at 90% mortality (C. elegans [2]; 200 nM): 31.75 days
Age at 100% mortality (C. elegans [2]; 200 nM): 39.46 days
Median lifespan (C. elegans [2]; 200nM (vehicle control 24.3)): 26.2 days
Mean lifespan (C. elegans [2]; 200nM (vehicle control 24.7)): 25.7
Maximum lifespan (C. elegans [2]; 200nM (vehicle control 34.9), 95th percentile): 33.7 days
Age at 25% mortality (C. elegans [2]; 2 µM): 23.9 days
Age at 50% mortality (C. elegans [2]; 2 µM): 27.54 days
Age at 75% mortality (C. elegans [2]; 2 µM): 29.41 days
Age at 90% mortality (C. elegans [2]; 2 µM): 31.23 days
Age at 100% mortality (C. elegans [2]; 2 µM): 39.42 days
Median lifespan (C. elegans [2]; 2µM (vehicle control 24.3)): 27.6 days
highest concentration at which no adverse effects were detected (C. elegans [3]): 4 µM
